Columns and labels:
human whole blood = assay: Human Whole Blood Histamine Assay (anti-IgE induced histamine release); format: cell-based; conditions: heparinized human whole blood, anti-human-IgE 2 μg/ml, histamine release by ELISA; read-out: HWB IC50
Description: Human Whole Blood Histamine Assay
Heparinized human whole blood (200 μl) was plated in 96-well V-bottom assay plates (VWR). Compounds diluted in 100% DMSO (1 μl) were added and incubated at 37° C. for 120 minutes. Anti-human-IgE antibody (KPL) was added to a final concentration of 2 μg/ml and assay plates incubated for 30 minutes at 37° C. Plates were spun at 2000 rpm for 8 minutes and the analyzed for histamine release by ELISA kits (Beckman Coulter).
Inhibition curves and IC50 values are determined using Excel-fit.

[1] = target: human full-length BTK Kinase (Homo sapiens (Human), UniProt Q06187); assay: Human BTK LanthaScreen Assay (TR-FRET); format: biochemical; conditions: 50 μM ATP, FAM-Srctide peptide substrate, read-out: BTK Inhibition IC50
Text: Human BTK LanthaScreen Assay

Human B cells = assay: Human Primary B Cell Proliferation Assay (3H-thymidine incorporation, anti-human IgM stimulated); format: cell-based; conditions: purified human B cells, 50 μg/mL anti-human IgM F(ab')2, 72 hours
Description: Human Primary B Cell Proliferation Assay
Human B cells were purified from buffy coats using the human B cell RosetteSep kit per manufacturer's instructions. Purified cells were resuspended in RPMI-10% HIFCS, 2 mM L-glutamine, 100 U/mL penicillin, 100 μg/ml streptomycin, incubated with compounds for 1 hour at 37° C. and then stimulated with 50 μg/mL anti-human IgM F(ab′)2 for 72 hours. ^3H-thymidine was included in the culture media for the final 8-16 hours. Cells were harvested and ^3H-thymidine incorporation was measured.
Human B cell Proliferation Assay

human EGFR kinase domain = human EGFR kinase domain (Homo sapiens (Human), UniProt P00533); assay: Human EGFR LanthaScreen Selectivity Assay (TR-FRET); format: biochemical; conditions: 20 μM ATP
human EGFR kinase domain, sequence (P00533 712-979): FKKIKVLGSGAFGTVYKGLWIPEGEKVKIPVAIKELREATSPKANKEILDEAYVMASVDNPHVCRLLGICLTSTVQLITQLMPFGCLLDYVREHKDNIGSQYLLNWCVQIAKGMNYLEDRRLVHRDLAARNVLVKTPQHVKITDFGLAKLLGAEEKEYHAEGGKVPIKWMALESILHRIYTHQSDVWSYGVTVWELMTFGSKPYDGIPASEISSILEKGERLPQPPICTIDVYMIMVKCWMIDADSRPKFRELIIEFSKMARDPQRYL
Description: The kinase reaction mixtures were incubated at room temperature for 60 minutes before stopping the kinase activity by the addition of 15 mM EDTA. The extent of peptide phosphorylation by EGFR was detected using a Terbium-conjugated anti-phospho-Tyrosine antibody (Tb-PT66 antibody, invitrogen # PV3557).

human full-length BTK Kinase, sequence (Q06187 whole entry): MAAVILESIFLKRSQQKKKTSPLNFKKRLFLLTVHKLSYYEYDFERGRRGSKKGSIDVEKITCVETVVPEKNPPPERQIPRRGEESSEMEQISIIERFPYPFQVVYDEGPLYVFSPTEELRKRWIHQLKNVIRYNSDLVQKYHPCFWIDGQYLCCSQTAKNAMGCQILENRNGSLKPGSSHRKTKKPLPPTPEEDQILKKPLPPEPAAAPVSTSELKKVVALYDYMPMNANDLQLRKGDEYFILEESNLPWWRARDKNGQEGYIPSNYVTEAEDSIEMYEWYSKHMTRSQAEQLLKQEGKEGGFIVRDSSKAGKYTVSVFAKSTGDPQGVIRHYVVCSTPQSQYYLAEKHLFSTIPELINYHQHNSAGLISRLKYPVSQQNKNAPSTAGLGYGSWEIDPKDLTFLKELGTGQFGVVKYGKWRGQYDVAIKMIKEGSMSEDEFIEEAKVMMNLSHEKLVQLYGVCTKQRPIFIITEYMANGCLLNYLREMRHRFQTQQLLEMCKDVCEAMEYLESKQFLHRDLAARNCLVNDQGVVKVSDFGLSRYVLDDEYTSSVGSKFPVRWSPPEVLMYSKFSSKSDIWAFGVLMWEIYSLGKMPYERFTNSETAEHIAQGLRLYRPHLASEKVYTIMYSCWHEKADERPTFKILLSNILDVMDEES

| SMILES | IC50 (human whole blood) | IC50 [1] | IC50 (Human B cells; B-cell) | IC50 (human EGFR kinase domain) | IC50 (Human B cells; Homo sapiens, B-cell) | IC50 (Human B cells) |
| --- | --- | --- | --- | --- | --- | --- |
| NC(=O)c1c(-c2ccc(Oc3ccc(Cl)cc3)cc2)nn([C@@H]2CCCN(C(=O)/C=C/CO)C2)c1N [Example 131, 5-amino-3-[4-(4-chlorophenoxy)phenyl]-1-{(3R)-1-[(2E)-4-hydroxybut-2-enoyl]piperidin-3-yl}-1H-pyrazole-4-carboxamide] | 0.259 µM | 0.0023 µM | 0.0016 µM | 2.2 µM |  |  |
| C=CC(=O)N1CCC[C@H](n2nc(-c3ccc(Oc4ccc(F)cc4F)cc3)c(C(N)=O)c2N)C1 [Example 136, 1-[(3S)-1-acryloylpiperidin-3-yl]-5-amino-3-[4-(2,4-difluorophenoxy)phenyl]-1H-pyrazole-4-carboxamide] | 0.57 µM | 0.0078 µM |  | 0.214 µM | 0.00044 µM |  |
| C=CC(=O)N1CCC[C@@H](n2nc(-c3ccc(Oc4ccc(F)cc4F)cc3)c(C(N)=O)c2N)C1 [Example 137, 1-[(3R)-1-acryloylpiperidin-3-yl]-5-amino-3-[4-(2,4-difluorophenoxy)phenyl]-1H-pyrazole-4-carboxamide] | 0.0314 µM | 0.00025 µM |  | 0.0256 µM |  | 0.00063 µM |
| NC(=O)c1c(-c2ccc(Oc3ccc(F)cc3F)cc2)nn([C@@H]2CCCN(C(=O)/C=C/CF)C2)c1N [Example 145, 5-amino-3-[4-(2,4-difluorophenoxy)phenyl]-1-{(3R)-1-[(2E)-4-fluorobut-2-enoyl]piperidin-3-yl}-1H-pyrazole-4-carboxamide] | 0.126 µM | 0.0028 µM | 0.0118 µM | 2.18 µM |  |  |
| NC(=O)c1c(-c2ccc(Oc3ccc(F)cc3F)cc2)nn([C@@H]2CCCN(C(=O)/C=C/CO)C2)c1N [Example 151, 5-am no-3-[4-(2,4-difluorophenoxy)phenyl]-1-{(3R)-1-[(2E)-4-hydroxybut-2-enoyl]-piperidin-3-yl}-1H-pyrazole-4-carboxamide] | 0.258 µM | 0.0023 µM | 0.00022 µM | 12.1 µM |  |  |
| C=CC(=O)N1CCC[C@@H](n2nc(-c3ccc(Oc4ccc(Cl)cn4)cc3)c(C(N)=O)c2N)C1 [Example 157, 1-[(3R)-1-acryloylpiperidin-3-yl]-5-amino-3-{4-[(5-chloropyridin-2-yl)oxy]phenyl}-1H-pyrazole-4-carboxamide] | 0.0987 µM | 0.0013 µM | 0.0242 µM | 0.0297 µM |  |  |
| C=CC(=O)N1CCC[C@@H](n2nc(-c3ccc(Oc4cccc(C(F)(F)F)n4)cc3)c(C(N)=O)c2N)C1 [Example 161, 1-[(3R)-1-acryloylpiperidin-3-yl]-5-amino-3-(4-{[6-(trifluoromethyl)pyridin-2-yl]oxy}phenyl)-1H-pyrazole-4-carboxamide] | 0.0527 µM | 0.0012 µM | 0.003 µM | 0.0898 µM |  |  |
| NC(=O)c1c(-c2ccc(Oc3cccc(C(F)(F)F)n3)cc2)nn([C@@H]2CCCN(C(=O)/C=C/CO)C2)c1N [Example 162, 5-amino-1-{(3R)-1-[(2E)-4-hydroxybut-2-enoyl]piperidin-3-yl}-3-(4-{[6-(trifluoromethyl)pyridin-2-yl]oxy}phenyl)-1H-pyrazole-4-carboxamide] | 0.343 µM | 0.0098 µM | 0.103 µM | 14.1 µM |  |  |

— US10266513B2 (Pfizer Inc., priority 2012, dated 2019)
